Measured values as given in US8415469B2, “Compounds and methods for kinase modulation, and indications therefor” (Plexxikon Inc., priority 2005, dated 2013).
pIC50: −log10 of the molar value. Values belong to the compound of their own block, whether it stands above or below them.

Experiments:
Format in all cases: biochemical
Kit = molecular target: T1, Kit (Homo sapiens, UniProt P10721); experiment: AlphaScreen kinase assay, Kit; conditions: read-out: IC50, activity toward kinase Kit
T1 construct: P1332.N6 BI PTP KIT M552-K948-X COD; His6 (N); made in house; host or cells: E. coli (PTP1B co-expressed)
T1 sequence (P10721 with tags, fused parts or gaps): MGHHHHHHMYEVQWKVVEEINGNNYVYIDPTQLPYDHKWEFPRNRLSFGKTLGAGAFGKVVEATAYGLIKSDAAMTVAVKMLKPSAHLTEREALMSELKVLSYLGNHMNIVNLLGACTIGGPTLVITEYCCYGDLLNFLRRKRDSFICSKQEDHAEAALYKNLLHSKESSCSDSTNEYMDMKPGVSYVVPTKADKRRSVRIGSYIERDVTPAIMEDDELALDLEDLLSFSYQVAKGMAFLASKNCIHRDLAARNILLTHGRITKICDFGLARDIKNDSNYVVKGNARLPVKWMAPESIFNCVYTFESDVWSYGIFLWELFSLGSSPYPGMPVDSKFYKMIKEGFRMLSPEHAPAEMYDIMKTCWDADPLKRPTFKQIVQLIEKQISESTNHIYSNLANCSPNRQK

Flt1 = molecular target: T2, Flt1 (Homo sapiens, UniProt P17948); experiment: AlphaScreen kinase assay, Flt1; conditions: read-out: IC50, activity toward kinase Flt1
T2 construct: P1826.pETN6 BI-PTP FLT1 M799-D1165-X WT; His6 (N); made in house; host or cells: E. coli (PTP1B co-expressed)
T2 sequence (P17948 with tags, fused parts or gaps): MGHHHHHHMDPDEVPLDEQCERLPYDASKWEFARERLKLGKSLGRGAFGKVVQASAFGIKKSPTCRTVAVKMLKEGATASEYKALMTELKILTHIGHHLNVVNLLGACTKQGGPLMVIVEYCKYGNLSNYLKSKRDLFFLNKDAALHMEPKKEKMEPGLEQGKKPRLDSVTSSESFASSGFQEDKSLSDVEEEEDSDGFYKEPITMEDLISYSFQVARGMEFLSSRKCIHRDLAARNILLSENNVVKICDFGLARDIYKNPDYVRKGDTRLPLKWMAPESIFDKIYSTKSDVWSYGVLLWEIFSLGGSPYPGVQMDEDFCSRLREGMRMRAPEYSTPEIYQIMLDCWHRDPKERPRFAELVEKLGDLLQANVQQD

IKK beta = molecular target: T3, IKK beta (Homo sapiens, UniProt O14920); experiment: AlphaScreen kinase assay, IKK beta; conditions: read-out: IC50, activity toward kinase IKK beta
T3 sequence (O14920 1-756): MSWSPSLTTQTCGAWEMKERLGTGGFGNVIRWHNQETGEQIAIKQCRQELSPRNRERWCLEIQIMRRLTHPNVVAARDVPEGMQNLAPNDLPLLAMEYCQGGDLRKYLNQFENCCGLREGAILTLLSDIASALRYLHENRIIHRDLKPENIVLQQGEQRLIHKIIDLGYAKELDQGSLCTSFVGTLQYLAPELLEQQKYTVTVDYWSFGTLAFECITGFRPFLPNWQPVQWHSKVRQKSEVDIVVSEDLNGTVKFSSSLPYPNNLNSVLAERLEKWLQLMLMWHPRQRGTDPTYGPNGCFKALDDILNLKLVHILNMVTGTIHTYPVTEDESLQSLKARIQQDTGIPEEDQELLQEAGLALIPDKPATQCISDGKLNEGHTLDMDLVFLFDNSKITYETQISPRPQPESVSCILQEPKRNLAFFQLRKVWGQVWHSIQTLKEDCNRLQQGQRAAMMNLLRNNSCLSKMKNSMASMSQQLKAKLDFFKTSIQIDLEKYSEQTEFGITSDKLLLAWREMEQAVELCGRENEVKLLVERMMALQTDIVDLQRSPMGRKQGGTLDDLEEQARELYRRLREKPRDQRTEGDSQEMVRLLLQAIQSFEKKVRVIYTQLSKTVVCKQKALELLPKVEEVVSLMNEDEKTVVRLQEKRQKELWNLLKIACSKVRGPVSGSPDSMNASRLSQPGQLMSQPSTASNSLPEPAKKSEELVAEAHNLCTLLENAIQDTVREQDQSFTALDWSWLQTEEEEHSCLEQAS

Yes = molecular target: T4, Yes (Homo sapiens, UniProt P07947); experiment: Z'-Lyte FRET kinase assay (Invitrogen), Yes; conditions: read-out: IC50, activity toward kinase Yes
T4 construct: purchased Invitrogen (Carlsbad, Calif.), screening service
T4 sequence (P07947 whole entry): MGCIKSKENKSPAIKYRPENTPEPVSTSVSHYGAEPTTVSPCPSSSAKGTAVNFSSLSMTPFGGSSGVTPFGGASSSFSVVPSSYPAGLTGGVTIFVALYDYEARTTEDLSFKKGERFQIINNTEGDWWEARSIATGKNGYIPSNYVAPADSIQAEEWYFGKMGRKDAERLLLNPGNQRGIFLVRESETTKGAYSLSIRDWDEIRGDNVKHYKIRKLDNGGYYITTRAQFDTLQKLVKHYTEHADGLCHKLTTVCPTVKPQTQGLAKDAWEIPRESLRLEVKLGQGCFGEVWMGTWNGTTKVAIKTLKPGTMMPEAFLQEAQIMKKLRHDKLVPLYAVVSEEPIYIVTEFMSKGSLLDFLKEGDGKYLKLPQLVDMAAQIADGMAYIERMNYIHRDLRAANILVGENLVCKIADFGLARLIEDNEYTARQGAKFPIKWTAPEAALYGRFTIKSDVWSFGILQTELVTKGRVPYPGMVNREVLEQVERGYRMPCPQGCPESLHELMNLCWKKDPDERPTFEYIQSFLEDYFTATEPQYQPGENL
Outline: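 Under a compound concentration curve, the kinase acted on a dual-labelled peptide at 2 μM with ATP at 10 μM for one hour at ambient temperature (buffer pH 7.5, 1% DMSO). Phosphorylation extent came from the emission ratio after protease development.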

MAP2K1 = molecular target: T5, MAP2K1 (Homo sapiens, UniProt Q02750); experiment: Z'-Lyte FRET kinase assay (Invitrogen), MAP2K1; conditions: read-out: IC50, activity toward kinase MAP2K1
T5 construct: purchased Invitrogen (assay run by Invitrogen)
T5 sequence (Q02750 whole entry): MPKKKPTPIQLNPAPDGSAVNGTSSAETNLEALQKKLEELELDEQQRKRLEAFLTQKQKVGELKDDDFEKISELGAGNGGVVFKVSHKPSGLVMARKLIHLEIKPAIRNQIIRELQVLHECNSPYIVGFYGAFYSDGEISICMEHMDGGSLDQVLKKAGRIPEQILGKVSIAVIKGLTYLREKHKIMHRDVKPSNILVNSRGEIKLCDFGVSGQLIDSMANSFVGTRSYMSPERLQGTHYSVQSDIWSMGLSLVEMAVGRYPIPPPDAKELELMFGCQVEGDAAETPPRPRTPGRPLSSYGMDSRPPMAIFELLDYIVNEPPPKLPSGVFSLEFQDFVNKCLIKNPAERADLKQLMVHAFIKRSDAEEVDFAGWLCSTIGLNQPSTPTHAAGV

Stk6 = molecular target: T6, Stk6 (Homo sapiens, UniProt O14965); experiment: Z'-Lyte FRET kinase assay (Invitrogen), Stk6; conditions: read-out: IC50, activity toward kinase Stk6
T6 construct: purchased Invitrogen (Carlsbad, Calif.), screening service
T6 sequence (O14965 1-403): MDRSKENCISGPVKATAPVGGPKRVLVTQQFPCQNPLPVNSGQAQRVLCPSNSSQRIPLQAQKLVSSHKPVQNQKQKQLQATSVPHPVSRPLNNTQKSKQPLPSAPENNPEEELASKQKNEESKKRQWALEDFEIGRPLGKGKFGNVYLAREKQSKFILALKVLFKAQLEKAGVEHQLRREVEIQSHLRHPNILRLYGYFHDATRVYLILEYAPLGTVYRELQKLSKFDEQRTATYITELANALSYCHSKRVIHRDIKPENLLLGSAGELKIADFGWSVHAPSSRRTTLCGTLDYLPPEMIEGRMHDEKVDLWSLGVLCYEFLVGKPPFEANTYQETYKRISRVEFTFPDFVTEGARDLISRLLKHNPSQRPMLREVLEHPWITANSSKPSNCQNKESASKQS

Kdr = molecular target: T7, Kdr (Homo sapiens, UniProt P35968); experiment: Z'-Lyte FRET kinase assay (Invitrogen), Kdr; conditions: read-out: IC50, activity toward kinase Kdr
T7 construct: purchased Invitrogen (assay run by Invitrogen)
T7 sequence (P35968 20-1356): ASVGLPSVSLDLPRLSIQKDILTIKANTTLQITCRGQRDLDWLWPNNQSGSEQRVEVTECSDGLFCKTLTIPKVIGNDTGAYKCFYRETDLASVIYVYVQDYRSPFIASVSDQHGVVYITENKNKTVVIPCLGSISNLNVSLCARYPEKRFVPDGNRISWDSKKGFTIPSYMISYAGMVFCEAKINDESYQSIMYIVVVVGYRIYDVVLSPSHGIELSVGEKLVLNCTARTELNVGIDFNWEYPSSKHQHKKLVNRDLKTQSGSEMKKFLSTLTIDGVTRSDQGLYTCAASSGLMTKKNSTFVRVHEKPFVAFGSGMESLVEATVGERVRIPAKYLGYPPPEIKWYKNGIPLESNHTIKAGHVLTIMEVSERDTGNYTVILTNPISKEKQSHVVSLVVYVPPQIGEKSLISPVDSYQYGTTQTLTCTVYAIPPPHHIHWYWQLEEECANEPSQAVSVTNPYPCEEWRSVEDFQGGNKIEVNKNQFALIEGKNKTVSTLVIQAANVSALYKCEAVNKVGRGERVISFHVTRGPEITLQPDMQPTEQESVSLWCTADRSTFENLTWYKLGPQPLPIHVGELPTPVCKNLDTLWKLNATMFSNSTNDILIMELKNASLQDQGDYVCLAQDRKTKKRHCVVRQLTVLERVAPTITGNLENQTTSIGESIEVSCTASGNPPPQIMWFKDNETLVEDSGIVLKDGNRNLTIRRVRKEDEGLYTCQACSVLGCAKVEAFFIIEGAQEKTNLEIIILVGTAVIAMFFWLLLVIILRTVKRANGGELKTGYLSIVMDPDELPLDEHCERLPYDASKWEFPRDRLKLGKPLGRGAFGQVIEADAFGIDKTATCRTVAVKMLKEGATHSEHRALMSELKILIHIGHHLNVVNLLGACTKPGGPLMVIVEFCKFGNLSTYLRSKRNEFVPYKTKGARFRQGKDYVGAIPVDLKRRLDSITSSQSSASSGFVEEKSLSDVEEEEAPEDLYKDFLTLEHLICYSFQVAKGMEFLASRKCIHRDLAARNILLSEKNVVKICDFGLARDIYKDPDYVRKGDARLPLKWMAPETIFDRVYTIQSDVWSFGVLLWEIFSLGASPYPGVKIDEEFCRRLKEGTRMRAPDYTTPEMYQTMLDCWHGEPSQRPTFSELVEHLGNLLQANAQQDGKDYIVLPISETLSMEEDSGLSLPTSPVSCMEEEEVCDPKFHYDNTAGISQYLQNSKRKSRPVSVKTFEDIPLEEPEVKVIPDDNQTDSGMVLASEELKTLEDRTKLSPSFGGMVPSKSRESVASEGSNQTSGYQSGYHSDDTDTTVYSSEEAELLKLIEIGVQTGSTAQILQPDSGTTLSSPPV

Btk = molecular target: T8, Btk (Homo sapiens, UniProt Q06187); experiment: Z'-Lyte FRET kinase assay (Invitrogen), Btk; conditions: read-out: IC50, activity toward kinase Btk
T8 construct: purchased Invitrogen (assay run by Invitrogen)
T8 sequence (Q06187 whole entry): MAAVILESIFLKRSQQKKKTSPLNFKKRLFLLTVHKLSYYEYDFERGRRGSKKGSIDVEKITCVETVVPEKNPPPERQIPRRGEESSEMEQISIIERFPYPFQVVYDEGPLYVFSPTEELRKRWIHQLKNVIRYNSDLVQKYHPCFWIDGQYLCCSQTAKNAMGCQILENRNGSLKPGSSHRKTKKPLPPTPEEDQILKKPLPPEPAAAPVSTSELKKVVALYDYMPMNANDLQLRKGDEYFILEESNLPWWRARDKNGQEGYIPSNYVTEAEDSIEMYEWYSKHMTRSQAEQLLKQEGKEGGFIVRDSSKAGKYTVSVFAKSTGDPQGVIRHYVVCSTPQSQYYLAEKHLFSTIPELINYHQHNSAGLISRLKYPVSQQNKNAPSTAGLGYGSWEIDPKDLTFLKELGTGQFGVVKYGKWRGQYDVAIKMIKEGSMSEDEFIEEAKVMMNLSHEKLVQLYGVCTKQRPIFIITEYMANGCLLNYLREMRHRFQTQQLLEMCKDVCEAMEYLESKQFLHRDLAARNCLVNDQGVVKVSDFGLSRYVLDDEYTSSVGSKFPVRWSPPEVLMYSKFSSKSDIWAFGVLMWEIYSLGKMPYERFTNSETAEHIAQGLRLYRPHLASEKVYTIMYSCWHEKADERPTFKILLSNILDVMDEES

Gsk3β = Gsk3β (Homo sapiens, UniProt P49841); experiment: AlphaScreen kinase assay, Gsk3β; conditions: read-out: IC50, activity toward kinase Gsk3β
Chain of Gsk3β (P49841 whole entry): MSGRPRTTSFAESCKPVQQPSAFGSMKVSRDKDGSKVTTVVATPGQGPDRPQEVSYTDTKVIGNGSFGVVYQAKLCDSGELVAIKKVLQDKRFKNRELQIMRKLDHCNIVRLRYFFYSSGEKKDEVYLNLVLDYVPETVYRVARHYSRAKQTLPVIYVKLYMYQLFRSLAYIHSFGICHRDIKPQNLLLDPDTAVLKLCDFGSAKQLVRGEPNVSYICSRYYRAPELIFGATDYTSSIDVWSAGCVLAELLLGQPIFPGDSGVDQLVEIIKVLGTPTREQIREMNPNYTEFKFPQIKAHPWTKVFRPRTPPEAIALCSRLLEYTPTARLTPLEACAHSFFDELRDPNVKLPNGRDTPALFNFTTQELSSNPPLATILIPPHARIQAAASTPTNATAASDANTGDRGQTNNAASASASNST
Excerpt: AlphaScreen assay was used to screen additional kinases. The assay is similarly dependent on the phosphorylation of a peptide substrate. In this assay, an antibody that recognizes phosphorylated substrate is bound to an acceptor bead. The peptide substrate is attached to biotin, which binds to a donor head that contains streptavidin. Thus phosphorylated substrate is bound by antibody and streptavidin, bringing the donor and acceptor heads into close proximity when kinase is not inhibited. The donor produces singlet oxygen which results in emission from the acceptor when they are in close proximity. Conversely, when kinase is inhibited, the donor and acceptor beads are not associated and the emission from the acceptor is reduced.
AlphaScreen assays were done using compounds dissolved in DMSO to a concentration of 20 mM. The compounds were diluted accordingly to the desired final concentrations in each sample well, using 1:3 serial dilution for a total of 8 concentration points.

EphB2 = molecular target: T9, EphB2 (Homo sapiens, UniProt P29323); experiment: Z'-Lyte FRET kinase assay (Invitrogen), EphB2; conditions: read-out: IC50, activity toward kinase EphB2
T9 construct: purchased Invitrogen (assay run by Invitrogen)
T9 sequence (P29323 19-1055): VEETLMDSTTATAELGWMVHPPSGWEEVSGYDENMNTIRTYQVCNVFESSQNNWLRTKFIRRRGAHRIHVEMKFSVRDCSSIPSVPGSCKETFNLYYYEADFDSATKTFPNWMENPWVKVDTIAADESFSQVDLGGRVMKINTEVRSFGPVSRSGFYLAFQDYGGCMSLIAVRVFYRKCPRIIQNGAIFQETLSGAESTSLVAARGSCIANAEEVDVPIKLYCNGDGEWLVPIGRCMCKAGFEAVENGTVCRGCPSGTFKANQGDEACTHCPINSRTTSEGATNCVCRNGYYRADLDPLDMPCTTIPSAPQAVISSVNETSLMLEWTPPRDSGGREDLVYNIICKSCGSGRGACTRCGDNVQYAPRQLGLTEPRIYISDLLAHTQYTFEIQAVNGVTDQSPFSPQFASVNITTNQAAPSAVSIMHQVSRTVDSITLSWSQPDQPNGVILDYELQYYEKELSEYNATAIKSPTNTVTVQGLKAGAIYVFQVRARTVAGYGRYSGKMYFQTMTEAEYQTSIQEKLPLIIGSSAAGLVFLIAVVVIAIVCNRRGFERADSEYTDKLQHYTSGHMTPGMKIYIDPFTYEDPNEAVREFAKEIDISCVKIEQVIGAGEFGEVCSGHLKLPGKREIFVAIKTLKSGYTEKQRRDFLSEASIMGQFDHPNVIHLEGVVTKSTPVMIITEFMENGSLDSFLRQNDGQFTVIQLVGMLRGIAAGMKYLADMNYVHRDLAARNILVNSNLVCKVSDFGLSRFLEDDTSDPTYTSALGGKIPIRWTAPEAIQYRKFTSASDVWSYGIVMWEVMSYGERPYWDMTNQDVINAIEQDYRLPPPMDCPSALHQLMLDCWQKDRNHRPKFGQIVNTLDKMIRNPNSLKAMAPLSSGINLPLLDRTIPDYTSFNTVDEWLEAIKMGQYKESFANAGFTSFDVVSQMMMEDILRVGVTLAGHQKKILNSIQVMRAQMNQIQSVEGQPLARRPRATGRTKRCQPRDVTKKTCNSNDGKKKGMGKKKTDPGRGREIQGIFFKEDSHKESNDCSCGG
Excerpt: The effect of potential modulators of kinase activity can be measured in a variety of different assays known in the art. For example, direct radiometric, indirect FRET or AlphaScreen assays may be used to assess the level of phosphorylation of a substrate in the presence of test compounds in order to determine the inhibitory affect of the compound on the kinase. Invitrogen (Carlsbad, Calif.) uses a FRET based assay for Btk, EGFR, EphB2, Flt3, lrak4, Kdr, MAP2K1, MAPKAPK2, PDGFRB, PKC theta, Stk6 and Yes. For these assays, compounds of the invention were screened by Invitrogen using Z′-Lyte™ kinase assay.
Briefly, the Invitrogen kinase assay involves use of a specific peptide substrate optimized for each kinase, containing a fluorophore at each end that make up the FRET pair. The peptide sensitivity to proteolytic cleavage depends on phosphorylation of the peptide. Non-phosphorylated peptide is cleaved by a protease while peptide phosphorylated by the kinase is not cleaved. Cleavage of the peptide disrupts the FRET between the donor (coumarin) and acceptor (fluorescein) fluorophores, resulting in an increase in the ratio of donor emission to acceptor emission. The emission ratio of coumarin to fluorescein is used to assess the reaction progress. The extent of phosphorylation is determined from the emission ratio, which is low when the kinase is active (phosphorylated peptide is not cleaved, FRET pair connected) or higher for inhibited kinase (non-phosphorylated peptide is cleaved, FRET pair separated). Thus, the assay involves a kinase reaction in the presence of varying concentrations of a given compound, a development reaction with site specific protease, and detection of the fluorescent emission ratio of coumarin and fluorscein. […] Reaction conditions for each kinase are determined to provide optimal reaction times, incubation temperature, kinase and ATP concentrations. Test samples are made up in 1× kinase buffer (50 mM HEPES pH 7.5, 50 mM MgCl2, 5 mM EGTA, 0.05% BRIJ-35) and compound at desired concentration prepared in DMSO such that the final DMSO is 1%. […] Typically, assay plates are prepared to 10 μl final volume per sample, adding 2.5 μl of compound at 4× the desired concentration in 4% DMSO (serial dilution of compound provides concentration curve), 5 μl of the desired kinase mixed with Z′-LYTE™ peptide substrate (2× in 2× kinase buffer, final peptide at 2 μM), and 2.5 μl of 4×ATP solution. All kinase except for MAP2K1 were at 10 μM ATP in the kinase reaction, while MAP2K1 was at 100 μM. Samples are mixed and the kinase reaction is incubated 1 hour at room temperature, after which 5 μl of development solution is added and mixed. After incubation for another 1 hour at room temperature, 5 μl of stop reagent is added to each sample and mixed. The fluorescence signals are measured to determine the emission ratio.

Ret = molecular target: T10, Ret (Homo sapiens, UniProt P07949); experiment: AlphaScreen kinase assay, Ret; conditions: read-out: IC50, activity toward kinase Ret
T10 construct: P1378.pET-SF BI-PTP RET H661-R1012 HIS; made in house
T10 sequence (P07949 with tags, fused parts or gaps): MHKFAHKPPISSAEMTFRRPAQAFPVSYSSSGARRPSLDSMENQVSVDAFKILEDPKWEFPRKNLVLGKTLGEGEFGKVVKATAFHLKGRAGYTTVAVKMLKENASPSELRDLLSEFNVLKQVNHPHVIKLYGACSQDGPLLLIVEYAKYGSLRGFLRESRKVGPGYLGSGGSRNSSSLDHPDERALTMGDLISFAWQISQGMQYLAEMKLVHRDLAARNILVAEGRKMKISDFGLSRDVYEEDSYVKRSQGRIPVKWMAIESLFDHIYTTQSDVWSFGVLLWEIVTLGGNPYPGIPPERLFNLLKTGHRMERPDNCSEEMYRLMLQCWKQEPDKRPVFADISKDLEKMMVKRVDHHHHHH

B-Raf V600E = molecular target: T11, B-Raf V600E (Homo sapiens, UniProt P15056, V600E); experiment: AlphaScreen kinase assay, B-Raf V600E; conditions: read-out: IC50, activity toward kinase B-Raf V600E
T11 construct: P4254. pFastBacBD-CDC37 BRAF D437-K722-X, V600E; His6 with pFastBac HT leader (TEV site) (N); made in house; host or cells: Sf9 (baculovirus; chaperone CDC37 co-expressed)
T11 sequence (P15056 with tags, fused parts or gaps V600E): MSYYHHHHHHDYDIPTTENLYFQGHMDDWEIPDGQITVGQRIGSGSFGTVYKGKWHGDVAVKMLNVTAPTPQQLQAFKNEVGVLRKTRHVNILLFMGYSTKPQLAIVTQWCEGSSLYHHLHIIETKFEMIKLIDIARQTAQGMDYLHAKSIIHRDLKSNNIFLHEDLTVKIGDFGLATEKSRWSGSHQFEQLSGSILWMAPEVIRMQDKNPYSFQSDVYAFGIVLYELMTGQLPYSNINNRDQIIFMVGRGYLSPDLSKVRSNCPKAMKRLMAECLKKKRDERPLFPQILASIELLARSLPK

Compound: COc1ccc(-c2c[nH]c3ncccc23)cc1F [Compound P-0690]
pIC50 (Kit): ≥ 5.00
pIC50 (IKK beta): ≥ 5.00

Compound: O=C(CCBr)c1c[nH]c2ncccc12 [Compound P-0081]
pIC50 (Yes): ≥ 5.00
pIC50 (MAP2K1): ≥ 5.00
pIC50 (Stk6): ≥ 5.00
pIC50 (Kdr): ≥ 5.00
pIC50 (Btk): ≥ 5.00
pIC50 (Gsk3β): ≥ 5.00

Compound: NC(=O)c1ccc(-c2ccnc3[nH]cc(C(=O)c4cccc(Cl)c4Cl)c23)cc1 [Compound P-0053]
pIC50 (Yes): ≥ 5.00
pIC50 (Kdr): ≥ 5.00
pIC50 (Btk): ≥ 5.00
pIC50 (EphB2): ≥ 5.00
pIC50 (Ret): ≥ 5.00
pIC50 (Gsk3β): ≥ 5.00
pIC50 (B-Raf V600E): ≥ 5.00

Compound: CCS(=O)(=O)c1ccc(-c2c(C)[nH]c3ncccc23)cc1 [Compound P-1223]
pIC50 (IKK beta): ≥ 5.00

Now from value to compound:

pIC50 (Kit): ≥ 5.00
pIC50 (Flt1): ≥ 5.00
pIC50 (IKK beta): ≥ 5.00
Compound: CSc1cccc(-c2c[nH]c3ncccc23)c1 [Compound P-0315]

pIC50 (IKK beta): ≥ 5.00
Compound: c1ccc2oc(-c3ccnc4[nH]ccc34)cc2c1 [Compound P-0790]

pIC50 (Flt1): ≥ 5.00
pIC50 (IKK beta): ≥ 5.00
Compound: c1cc(-c2ccsc2)c2cc[nH]c2n1 [Compound P-0629]

pIC50 (IKK beta): ≥ 5.00
Compound: C[C@H]1CN(c2ccc(-c3ccnc4[nH]ccc34)cn2)CCN1 [Compound P-0410]

pIC50 (IKK beta): ≥ 5.00
Compound: COc1ccc(C#Cc2ccnc3[nH]ccc23)cc1 [Compound P-0920]
